This experiment has as its system ADP-stimulated platelets. Description: ADP-stimulated platelet aggregation assay (gel-filtered human platelets). Format: cell-based. Conditions: inhibition of ADP-stimulated platelet aggregation by 50% relative to control; gel-filtered human platelets 2×10^8 per ml, fibrinogen 100 ug/ml, Ca^2+ 1 mM, 10 mM ADP, 37° C. The text has this: The activity of these fibrinogen receptor antagonists is illustrated below. One test used to evaluate fibrinogen receptor antagonist activity is based on evaluation of inhibition of ADP-stimulated platelets. Aggregation requires that fibrinogen bind to and occupy the platelet fibrinogen receptor site. Inhibitors of fibrinogen binding inhibit aggregation. In the ADP-stimulated platelet aggregation assay used to determine inhibition associated with these fibrinogen receptor antagonists, human platelets are isolated from fresh blood, collected into acid citrate/dextrose by differential centrifugation followed by gel filtration on Sepharose 2B in divalent ion-free Tyrode's buffer (pH 7.4) containing 2% bovine serum albumin.
Platelet aggregation is measured at 37° C. in a Chronolog aggregometer. The reaction mixture contains gel-filtered human platelets (2×10^8 per ml), fibrinogen (100 micrograms per ml (ug/ml)), Ca^2+ (1 mM), and the fibrinogen receptor antagonists tested. The aggregation is initiated by adding 10 mM ADP 1 minute after the other components are added. The reaction is then allowed to proceed for at least 2 minutes. The extent of inhibition of aggregation is expressed as the percentage of the rate of aggregation observed in the absence of inhibitor. The IC50 is the dose of a particular compound inhibiting aggregation by 50% relative to a control lacking the compound. […]

The results in this text go back to patent US5665882A, “Pyridyl ethylation of lactams” (Merck & Co., Inc., priority 1996, dated 1997).

As for `C[C@H](CC(=O)O)NC(=O)CN1CCC[C@@H](CCC2CCNCC2)C1=O`, the IC50 (usually the concentration that gives 50% inhibition) was 100 µM.
